From ChEMBL document CHEMBL4145614, “Cyclopeptides from the Sponge Stylissa flabelliformis” (J Nat Prod, 2018)

Key:
SK-HEP1 = experiment: Cytotoxicity against human SKHEP1 cells after 72 hrs by sulforhodamine B assay; format: functional, cell-based; conditions: sk-hep1
K562 = experiment: Cytotoxicity against human K562 cells after 72 hrs by sulforhodamine B assay; format: functional, cell-based; conditions: k562
SNU-638 = experiment: Cytotoxicity against human SNU638 cells after 72 hrs by sulforhodamine B assay; format: functional, cell-based; conditions: snu-638
HCT-116 = experiment: Cytotoxicity against human HCT116 cells after 72 hrs by sulforhodamine B assay; format: functional, cell-based; conditions: hct-116
MDA-MB-231 = experiment: Cytotoxicity against human MDA-MB-231 cells after 72 hrs by sulforhodamine B assay; format: functional, cell-based
Trichophyton rubrum = experiment: Antifungal activity against Trichophyton rubrum IFO 9185 measured after 48 to 72 hrs; format: functional
Salmonella typhimurium = experiment: Antibacterial activity against Salmonella typhimurium ATCC 14028 measured after 24 hrs; format: functional, Salmonella enterica subsp. enterica serovar Typhimurium; conditions: Salmonella enterica, ATCC 14028, 24 h
Staphylococcus aureus = experiment: Antibacterial activity against Staphylococcus aureus ATCC 6538P measured after 24 hrs; format: functional
[1] = biological target: Sodium/potassium-transporting ATPase; experiment: Inhibition of potassium-activated sodium/potassium ATPase in human placenta using 3-O-methylfluorescein phosphate as substrate measured for 90 secs by fluorescence assay
Proteus vulgaris = experiment: Antibacterial activity against Proteus vulgaris ATCC 3851 measured after 24 hrs; format: functional; conditions: ATCC 3851, 24 h
Escherichia coli = experiment: Antibacterial activity against Escherichia coli ATCC 25922 measured after 24 hrs; format: functional; conditions: ATCC 25922, 24 h
Micrococcus luteus = experiment: Antibacterial activity against Micrococcus luteus IFC 12708 measured after 24 hrs; format: functional; conditions: IFC 12708, 24 h
[2] = Inhibition of recombinant bacterial sortase A using Dabcyl-QALPETGEE-Edans as substrate measured after 1 hr by fluorescence assay; set-up: species or system Bacteria
[3] = tested on: Trichophyton mentagrophytes; experiment: Antifungal activity against Trichophyton mentagrophytes IFO 40996 measured after 48 to 72 hrs; format: functional
Aspergillus fumigatus = experiment: Antifungal activity against Aspergillus fumigatus HIC 6094 measured after 48 to 72 hrs; format: functional
Candida albicans = experiment: Antifungal activity against Candida albicans ATCC 10231 measured after 48 to 72 hrs; format: functional
Bacillus spizizenii = experiment: Antibacterial activity against Bacillus subtilis ATCC 6633 measured after 24 hrs; format: functional; conditions: ATCC 6633, 24 h

Description for A549: Cytotoxicity against human A549 cells after 72 hrs by sulforhodamine B assay

Structure (SMILES)	IC50 (SK-HEP1)	IC50 (K562)	IC50 (SNU-638)	IC50 (A549)	IC50 (HCT-116)	IC50 (MDA-MB-231; Homo sapiens, MDA-MB-231, 72 h)	MIC (Trichophyton rubrum)	MIC (Salmonella typhimurium)	MIC (Staphylococcus aureus)	IC50 [1]	MIC (Proteus vulgaris)	MIC (Escherichia coli)	MIC (Micrococcus luteus)	IC50 [2]	IC50 (MDA-MB-231; mda-mb-231)	MIC [3]	MIC (Aspergillus fumigatus)	MIC (Candida albicans)	MIC (Bacillus spizizenii)
CC[C@H](C)[C@@H]1NC(=O)[C@H](Cc2ccc(O)cc2)NC(=O)[C@@H]2CCCN2C(=O)[C@@H]2CCCN2C(=O)[C@H](CC(C)C)NC(=O)[C@H](CCC(=O)O)NC(=O)[C@H](Cc2ccccc2)NC(=O)[C@H](CC[S+](C)[O-])NC(=O)[C@@H]2CCCN2C(=O)[C@@H]2CCCN2C1=O (single isomer, unassigned; epimer 2)	14 nM	21 nM	10 nM	23 nM	11 nM	350 nM													
CC[C@H](C)[C@@H]1NC(=O)[C@H](Cc2ccc(O)cc2)NC(=O)[C@@H]2CCCN2C(=O)[C@@H]2CCCN2C(=O)[C@H](CC(C)C)NC(=O)[C@H](CCC(=O)O)NC(=O)[C@H](Cc2ccccc2)NC(=O)[C@H](CC[S+](C)[O-])NC(=O)[C@@H]2CCCN2C(=O)[C@@H]2CCCN2C1=O (single isomer, unassigned; Epimer-1)	41 nM	170 nM	160 nM	190 nM	140 nM		> 128 µM	> 128 µM	> 128 µM	> 100000 nM	> 128 µM	> 128 µM	> 128 µM	> 100000 nM	400 nM	> 128 µM	> 128 µM	> 128 µM	> 128 µM
